# Measured values taken from patent US20130331368A1, “METHOD OF TREATING HEPATOCELLULAR CARCINOMA” (Niiki Pharma Acquisition Corp. 2, priority 2011, published 2013).
# Where two headings read alike, the source gives them in different places.
# Columns and labels:
# [1] = tested on: HepG2; assay: Literature IC50 in HepG2 (Kogure et al.); format: cell-based, human; settings: ratio of literature IC50 values (Kogure et al.)
# Experimental: In addition, the IC50 values of 5-FU and cisplatin in the Hep3B and HepG2 cell lines were obtained from Kogure et al., Cancer Chemother. Pharmacol., 53(4):296-304 (2004). The ratios of IC50 values of sodium trans-[tetrachlorobis(1H-indazole)ruthenate(III)] in a cell line sensitive to one of the other drugs and a cell line insensitive to the same drug were calculated. The results are shown in Tables 1-5 below (“Test Drug” in the tables denotes sodium trans-[tetrachlorobis(1H-indazole)ruthenate(III)]). […] As such, sodium trans-[tetrachlorobis(1H-indazole)ruthenate(III)] is potentially effective in treating hepatocellular carcinoma resistant to such other drugs.
# [2] = tested on: Hep3B; settings: from Kogure et al. 2004; cited from earlier work
# [3] = tested on: HepG2; settings: from Kogure et al. 2004; cited from earlier work
# [4] = tested on: Hep3B; assay: MTT cytotoxicity assay, Hep3B cell line; format: cell-based, human
# Experimental: (§1) To test the activities of sodium trans-[tetrachlorobis(1H-indazole)ruthenate(III)] (“drug”), MTT assays were performed using selected hepatocellular carcinoma cell lines. Cells were plated (2×10^3 cells in 100 μl/well) in 96-well plates and allowed to recover for 24 hours. The drug was added in another 100 μl growth medium and incubated with cultured cells for 3 hours before the cell culture medium was replaced to remove the drug. Cell death was measured 72 hours after the initial incubation by MTT assay following the manufacturer's recommendations (EZ4U, Biomedica, Vienna, Austria).
# (§2) In addition, the IC50 values of 5-FU and cisplatin in the Hep3B and HepG2 cell lines were obtained from Kogure et al., Cancer Chemother. Pharmacol., 53(4):296-304 (2004). The ratios of IC50 values of sodium trans-[tetrachlorobis(1H-indazole)ruthenate(III)] in a cell line sensitive to one of the other drugs and a cell line insensitive to the same drug were calculated.
# [5] = tested on: HepG2; assay: MTT cytotoxicity assay, HepG2 cell line; format: cell-based, human; settings: for IC50: HepG2; for IC50 Ratio (HepG2/Hep3B): IC50 in HepG2 divided by IC50 in Hep3B
# Experimental: as §1, §2
# [6] = tested on: HCC3; assay: MTT cytotoxicity assay, HCC3 cell line; format: cell-based, human; settings: for IC50: HCC3, MTT at 72 h; for IC50 Ratio (HCC3/B1): IC50 in HCC3 divided by IC50 in B1
# Experimental: as §1, §2
# [7] = tested on: HCC2; assay: MTT cytotoxicity assay, HCC2 cell line; format: cell-based, human; settings: for IC50: HCC2, MTT; for IC50 Ratio (HCC2/HCC3): IC50 in HCC2 divided by IC50 in HCC3
# Experimental: as §1, §2
# [8] = tested on: B1; assay: MTT cytotoxicity assay, B1 cell line; format: cell-based, human
# Experimental: as §1, §2
# [9] = tested on: Hep3B cells; settings: for increase in life span: versus control group (33 days)
# Experimental: Separately, the activity of sodium trans-[tetrachlorobis(1H-indazole)ruthenate(III)] against Hep3B cells was evaluated in xenograft experiments using female SCID mice as compared to the standard therapy sorafenib. Sodium trans-[tetrachlorobis(1H-indazole)ruthenate(III)] was administered IV at 30 mg/kg once a week for two weeks. Sorafenib was administered P.O. at 25 mg/kg daily five times a week for two weeks.
# [10] = tested on: hepatocellular carcinoma; settings: late stage HCC patients with well preserved liver function; cited from earlier work
# [11] = tested on: HCC1.2; assay: MTT cytotoxicity assay, HCC1.2 cell line; format: cell-based, human; settings: 3 h drug incubation, MTT at 72 h
# Experimental: as §1
# [12] = tested on: hepatocellular carcinoma cell lines; assay: MTT cytotoxicity assay, mean over selected hepatocellular carcinoma cell lines; format: cell-based, human; settings: mean over tested HCC cell lines, after 72 hours
# Experimental: as §1
# [13] = tested on: Hep3B cells; assay: Apoptosis induction, DAPI staining of nuclear morphology; format: cell-based, human; settings: 24 hours of drug treatment
# Experimental: To evaluate the mechanisms underlying the drug activity, apoptosis induction as well as impact on cell cycle distribution and proliferation of Hep3B cells were evaluated (FIG. 2). Specifically, the hepatoma cell line Hep3B was purchased from American Type Culture Collection (ATCC), Manassas, Va. All cells were grown in RPMI 1640 supplemented with 10% FCS. Cultures were regularly checked for Mycoplasma contamination. After 24 hours of drug treatment, cells were harvested, washed in PBS and cytospins were prepared. After fixation with a 1:1 methanol/acetone solution, slides were stained with 4′,6-diamidino-2-phenylindole (DAPI) containing antifade solution (Vector Laboratories, Inc., USA). Nuclear morphology of cells was examined using a Laica DMRXA fluorescence microscope (Laica Mikroskopie and System, Wetzlar, Germany) equipped with appropriate epifluorescence filters and a COHU charge-douples device camera. Duplicate slides were prepared for each cell type/treatment group and 300-500 cells were counted for each sample.
# Treatment with sodium trans-[tetrachlorobis(1H-indazole)ruthenate(III)] led to typical morphological signs of programmed cell death like cell shrinkage, chromatin condensation and formation of apoptotic bodies. […]
# [14] = tested on: PARP; assay: PARP cleavage by Western blot; format: cell-based, human; settings: 24 hours of drug treatment
# Experimental: Treatment with sodium trans-[tetrachlorobis(1H-indazole)ruthenate(III)] led to typical morphological signs of programmed cell death like cell shrinkage, chromatin condensation and formation of apoptotic bodies. Apoptotic cell death induced by sodium trans-[tetrachlorobis(1H-indazole)ruthenate(III)] was further characterized by PARP cleavage examined by Western Blot Analyses. Specifically, after 24 hours of drug treatment, protein extracts were prepared and Western blot analyses performed. Rabbit Anti-PARP from Apoptosis Sampler kit (Cell Signaling Technology, Beverly, Mass.) (dilution 1:1000)[…]) was used. For loading control β-actin monoclonal mouse AC-15 (Sigma, USA, dilution: 1:1000) was used. All secondary peroxidase-labeled antibodies were purchased from Santa Cruz Biotechnology and used at working dilution of 1:10000.
# [15] = tested on: Hep3B cells; assay: Mitochondrial membrane depolarization, JC-1 staining and FACS; format: cell-based, human
# [16] = tested on: Hep3B cells; assay: DNA synthesis rate by 3H-thymidine incorporation; format: cell-based, human
# [17] = tested on: Hep3B cells; assay: Cell cycle distribution, PI staining and FACS; format: cell-based, human; settings: 24 hours of treatment, PI staining, FACS
# [18] = tested on: stress kinase P38 and extracellular signal-regulated kinase (ERK); assay: Phosphorylation of P38 and ERK; format: cell-based, human; settings: 24 hours of treatment
# [19] = tested on: colon cancer cell line SW480; settings: Kapitza et al. 2005; cited from earlier work
# [20] = tested on: colon cancer cell line HT29; settings: Kapitza et al. 2005; cited from earlier work
# [21] = Hep3B xenograft, female SCID mice
Compound,IC50 Ratio (HepG2/Hep3B) [1],IC50 [2] [µg/mL],IC50 [3] [µg/mL],IC50 Ratio (HepG2/Hep3B) [5],IC50 [6] [µM],IC50 [7] [µM],IC50 Ratio (HCC2/HCC3) [7],IC50 Ratio (HCC3/B1) [6],"mean survival [9, 21] [days]",increase in life span ([9]; Hep3B xenograft) [fold],also measured
O=c1[nH]cc(F)c(=O)[nH]1 [5-FU],>5.2,227,17.2,–,–,–,–,–,–,–,–
"N.N.[Cl][Pt][Cl] [Cisplatin, cisplatin]",>5.2,3.75,19.4,–,–,–,–,–,–,–,–
"COc1cccc2c1C(=O)c1c(O)c3c(c(O)c1C2=O)C[C@@](O)(C(=O)CO)C[C@@H]3O[C@H]1C[C@H](N)[C@H](O)[C@H](C)O1 [Doxorubicin, doxorubicin, reference compound]",–,–,–,>3.6,–,–,–,–,–,–,IC50 ([4]; Homo sapiens): 0.0693 µM; IC50 ([5]; Homo sapiens): > 0.25 µM
"O=C1[O][Pt]2([NH][C@@H]3CCCC[C@H]3[NH]2)[O]C1=O [Oxaliplatin, oxaliplatin, reference compound]",–,–,–,–,0.41,4.05,>9.9,–,–,–,–
"CNC(=O)c1cc(Oc2ccc(NC(=O)Nc3ccc(Cl)c(C(F)(F)F)c3)cc2)ccn1 [Sorafenib, sorafenib, reference compound]",–,–,–,–,–,–,–,>12.5,60,1.9,IC50 ([6]; Homo sapiens): > 10 µM; IC50 ([8]; Homo sapiens): 0.8 µM; added lifespan [10]: two
[Cl][Ru-]([Cl])([Cl])[Cl].[Na+].c1ccc2[nH]ncc2c1.c1ccc2[nH]ncc2c1 [sodium trans-[tetrachlorobis(1H-indazole)ruthenate(III)]],–,–,–,1.1,67.5,129,1.9,0.8,80,2.4,"IC50 [11]: 62.9 µM; IC50 [8]: 83.4 µM; IC50 ([4]; MTT): 167 µM; IC50 ([5]; MTT): 189 µM; IC50 [12]: 124 µM; apoptosis induction [13]: significant apoptosis; PARP cleavage [14]: PARP cleavage induced; cells with mitochondrial membrane depolarization [15]: increase of cells with mitochondrial membrane depolarization; DNA synthesis rate [16]: significantly reduce DNA synthesis rate; cell cycle distribution [17]: increase of cells in G2/M phase; phosphorylation of P38 and ERK [18]: strong phosphorylation; tumor growth ([9]; Hep3B xenograft, female SCID mice, IV 30 mg/kg once a week for two weeks): effectively suppressed the growth of tumor; tolerability ([9]; female SCID mice, IV 30 mg/kg once a week for two weeks): well tolerated; killing of tumor cells [19]: effective in killing tumor cells; killing of tumor cells [20]: effective in killing tumor cells"
